This note sets out measurements from patent US9796711B2, “Substituted pyrazolo[3,4-b]pyridin-6-carboxylic acids and method of use” (AbbVie S.àr.l., priority 2015, dated 2017).

For the assay, the target named is T1, ΔF508-CFTR (Homo sapiens, UniProt P13569, DEL508-508).
T1 construct: host or cells: CFBE41o-, doxycycline-inducible
Put plainly: CFTR cell surface levels using HRP-tagged ΔF508-CFTR expressing CFBE cells, in the presence of a co-corrector. It counts as cell-based. Particulars: HRP-tagged ΔF508-CFTR expressing CFBE cells, in the presence of 3 μM co-corrector; for EC50: read-out: EC50. An excerpt: Measuring CFTR Cell Surface Levels Using HRP-Tagged AF508-CFTR Expressing CFBE Cells
The HRP-tagged AF508-CFTR cell assay measures the expression of CFTR-ΔF508 at the plasma membrane. CFTR-ΔF508 has a folding defect leading to absence of protein at the plasma membrane. This assay is used to evaluate the capacity of compounds to increase the expression of CFTR-ΔF508 at the plasma membrane. The CFTR-ΔF508 is tagged with HRP (horse radish peroxidase enzyme) within the ECL4 (Extracellular loop 4) of CFTR (Phuan, P.-W. et al. Synergy-based small-molecule screen using a human lung epithelial cell line yields AF508-CFTR correctors that augment VX-809 maximal efficacy. Mol. Pharmacol. 86, 42-51 (2014)). When HRP-tagged AF508-CFTR is present at the plasma membrane, the HRP enzyme activity can be measured. The amount of CFTR-ΔF508 that can be rescued to the plasma membrane is correlated with the amount of functional enzyme that can be measured.
There are several ways to measure the capacity of compounds to rescue CFTR-ΔF508 to the plasma membrane; either compounds are evaluated on their own and the impact on plasma membrane levels is measured or compounds are evaluated in combination with a co-corrector, i.e. a compound that rescues CFTR-ΔF508 to the plasma membrane but rescue can be enhanced by addition of compounds due to a complementary mode of action.
Activity of Compounds in Combination with Co-Corrector:
For this purpose doxycycline-inducible AF508-CFTR-HRP expressing CFBE4lo-cells (obtained from Gergely Lukacs, McGill University) were maintained in MEM (Minimum Essential Medium, Gibco; 31095) supplemented with 10% fetal bovine serum (Hyclone; SV30160.03) under puromycin (3 μg/mL) and G418 selection (0.2 mg/mL). For compound testing, cells were seeded at 4000 cells/well in white 384-well plates (Greiner; 781080) in 50 μL of medium containing 0.5 μg/mL doxycycline and incubated for 68 hours at 37° C., 5% CO2. On day four, 10 μL of test compounds diluted in PBS (phosphate buffered saline) were added to the plates at a final DMSO concentration of 0.1%. In order to measure compound synergy with a co-corrector, 3 μM co-corrector (3-[(2R,4R)-4-({[1-(2,2-difluoro-1,3-benzodioxol-5-yl)cyclopropyl]carbonyl}amino)-7-methoxy-3,4-dihydro-2H-chromen-2-yl]benzoic acid) was added along with test compounds. All compound plates contained negative controls (DMSO) and positive controls (3 μM co-corrector). Cell plates were incubated at 33° C., 5% CO2 for 20 hours. On day five, the cells were washed five times with phosphate-buffered saline, and HRP activity was assayed by the addition of 50 μL/well of HRP substrate (SuperSignal™ West Pico Chemiluminescent Substrate, Thermo Scientific; 34080). After incubation for 15 minutes in the dark, the chemiluminescence was measured using a plate reader (EnVision®, Perkin Elmer). Raw data were normalized to percentage activity values using the equation: 100×(Sample−Negative control)/(Positive control−Negative Control).

Structures are written as SMILES.

T1 sequence (P13569 with tags, fused parts or gaps DEL508-508): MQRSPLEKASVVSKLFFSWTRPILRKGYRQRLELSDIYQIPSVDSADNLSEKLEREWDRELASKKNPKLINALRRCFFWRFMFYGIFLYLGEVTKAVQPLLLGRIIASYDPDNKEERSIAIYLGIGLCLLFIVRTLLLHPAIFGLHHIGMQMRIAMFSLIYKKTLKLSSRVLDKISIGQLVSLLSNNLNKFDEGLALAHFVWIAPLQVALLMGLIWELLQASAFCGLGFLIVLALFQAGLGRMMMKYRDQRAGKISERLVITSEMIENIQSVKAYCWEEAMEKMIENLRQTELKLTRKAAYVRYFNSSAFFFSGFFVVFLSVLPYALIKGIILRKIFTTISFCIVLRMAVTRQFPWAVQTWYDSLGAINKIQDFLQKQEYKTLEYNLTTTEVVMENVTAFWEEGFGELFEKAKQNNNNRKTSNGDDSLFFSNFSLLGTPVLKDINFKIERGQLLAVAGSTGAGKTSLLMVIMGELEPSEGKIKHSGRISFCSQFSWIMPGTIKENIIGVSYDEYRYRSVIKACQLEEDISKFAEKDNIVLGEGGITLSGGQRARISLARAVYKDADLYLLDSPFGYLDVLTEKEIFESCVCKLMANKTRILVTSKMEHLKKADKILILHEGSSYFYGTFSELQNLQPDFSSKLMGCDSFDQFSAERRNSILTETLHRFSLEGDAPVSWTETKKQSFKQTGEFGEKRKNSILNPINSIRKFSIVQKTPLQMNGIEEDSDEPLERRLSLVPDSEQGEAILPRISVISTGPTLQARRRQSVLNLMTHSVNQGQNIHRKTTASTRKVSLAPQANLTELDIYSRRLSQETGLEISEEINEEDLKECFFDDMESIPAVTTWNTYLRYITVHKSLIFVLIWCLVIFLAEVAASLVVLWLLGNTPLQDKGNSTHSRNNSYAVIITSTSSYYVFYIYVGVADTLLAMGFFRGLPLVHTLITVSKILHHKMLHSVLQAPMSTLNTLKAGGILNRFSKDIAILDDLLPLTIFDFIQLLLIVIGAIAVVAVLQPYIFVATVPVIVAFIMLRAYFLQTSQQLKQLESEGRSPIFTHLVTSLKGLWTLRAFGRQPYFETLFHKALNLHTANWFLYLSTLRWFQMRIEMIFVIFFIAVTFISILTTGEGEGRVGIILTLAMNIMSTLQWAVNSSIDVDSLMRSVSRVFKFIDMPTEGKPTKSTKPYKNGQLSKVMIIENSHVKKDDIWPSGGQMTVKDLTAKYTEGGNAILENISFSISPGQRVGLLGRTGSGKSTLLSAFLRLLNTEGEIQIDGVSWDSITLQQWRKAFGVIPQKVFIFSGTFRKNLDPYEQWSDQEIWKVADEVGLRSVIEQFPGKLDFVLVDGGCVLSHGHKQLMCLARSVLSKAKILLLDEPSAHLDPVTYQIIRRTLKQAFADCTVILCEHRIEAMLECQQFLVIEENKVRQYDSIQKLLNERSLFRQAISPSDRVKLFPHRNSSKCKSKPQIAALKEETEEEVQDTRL

Regarding `COC(=O)N1CCC(COc2cc(C(=O)O)nc3c2c(C(C)C)nn3-c2ccc(F)cc2)CC1` [compound 663, 1-(4-fluorophenyl)-4-{[1-(methoxycarbonyl)piperidin-4-yl]methoxy}-3-(propan-2-yl)-1H-pyrazolo[3,4-b]pyridine-6-carboxylic acid], the “% Activation” value worked out at 315.5% and the EC50 is 90.9 nM.
As to `CN(CCN1CCOCC1)c1cc(C(=O)O)nc2c1c(C1CCC1)nn2-c1ccccc1` [compound 565, 3-cyclobutyl-4-{methyl[2-(morpholin-4-yl)ethyl]amino}-1-phenyl-1H-pyrazolo[3,4-b]pyridine-6-carboxylic acid], the “% Activation” value is 319.8% and the EC50 worked out at 1930 nM.
`COCCOCC1(F)CCN(c2cc(C(=O)O)nc3c2c(C(C)C)nn3-c2ccc(F)cc2)CC1` [compound 667, 4-{4-fluoro-4-[(2-methoxyethoxy)methyl]piperidin-1-yl}-1-(4-fluorophenyl)-3-(propan-2-yl)-1H-pyrazolo[3,4-b]pyridine-6-carboxylic acid]: the “% Activation” value is 339.85% and the EC50 was found to be 462 nM.
The matching figures for `O=C(O)c1cc(N2CCN(CCO)CC2)c2c(C3CCC3)nn(-c3ccccc3)c2n1` [compound 722, 3-cyclobutyl-4-[4-(2-hydroxyethyl)piperazin-1-yl]-1-phenyl-1H-pyrazolo[3,4-b]pyridine-6-carboxylic acid]: 247% and 1670 nM.
As to `CN1CCN(CCC2CCN(c3cc(C(=O)O)nc4c3c(C3CCC3)nn4-c3ccccc3)CC2)CC1` [compound 695, 3-cyclobutyl-4-{4-[2-(4-methylpiperazin-1-yl)ethyl]piperidin-1-yl}-1-phenyl-1H-pyrazolo[3,4-b]pyridine-6-carboxylic acid], the “% Activation” value stood at 385.5% and the EC50 was 119 nM.
For `CC(C)c1nn(-c2ccc(F)cc2)c2nc(C(=O)O)cc(N3CCC(C)(N4CCN(C)CC4)CC3)c12` [compound 761, 1-(4-fluorophenyl)-4-[4-methyl-4-(4-methylpiperazin-1-yl)piperidin-1-yl]-3-(propan-2-yl)-1H-pyrazolo[3,4-b]pyridine-6-carboxylic acid] the same measures were 284% and 1670 nM.
In the case of `O=C(O)c1cc(N2CC(N3CCCC3)C2)c2c(C3CCC3)nn(-c3ccccc3)c2n1` [compound 680, 3-cyclobutyl-1-phenyl-4-[3-(pyrrolidin-1-yl)azetidin-1-yl]-1H-pyrazolo[3,4-b]pyridine-6-carboxylic acid], the “% Activation” value is recorded as 236.7% and the EC50 amounted to 1360 nM.
Take `CC(C)c1nn(-c2ccc(F)cc2)c2nc(C(=O)O)cc(N3CC(N4CCC(N(C)C5COC5)CC4)C3)c12` [compound 758, 1-(4-fluorophenyl)-4-(3-{4-[methyl(oxetan-3-yl)amino]piperidin-1-yl}azetidin-1-yl)-3-(propan-2-yl)-1H-pyrazolo[3,4-b]pyridine-6-carboxylic acid]: the “% Activation” value came to 139.5% and the EC50 amounted to 812 nM.
The matching figures for `O=C(O)c1cc(N2CC3(CCCOC3)C2)c2c(C3CCC3)nn(-c3ccccc3)c2n1` [compound 720, 3-cyclobutyl-4-(6-oxa-2-azaspiro[3.5]nonan-2-yl)-1-phenyl-1H-pyrazolo[3,4-b]pyridine-6-carboxylic acid]: 263.1% and 356 nM.
On to `CN1CCCC(CN(C)c2cc(C(=O)O)nc3c2c(C2CCC2)nn3-c2ccccc2)C1` (stereo not drawn) [compound 593, 3-cyclobutyl-4-{methyl [(1-methylpiperidin-3-yl)methyl]amino}-1-phenyl-1H-pyrazolo[3,4-b]pyridine-6-carboxylic acid], for which the “% Activation” value is 313.3% and the EC50 is 1170 nM.
The matching figures for `CC(C)c1nn(-c2ccc(F)cc2)c2nc(C(=O)O)cc(OCCCN(C)C)c12` [compound 606, 4-[3-(dimethylamino)propoxy]-1-(4-fluorophenyl)-3-(propan-2-yl)-1H-pyrazolo[3,4-b]pyridine-6-carboxylic acid]: 199.7% and 1770 nM.
For `CC(=O)N1CCC(COc2cc(C(=O)O)nc3c2c(C(C)C)nn3-c2ccc(F)cc2)CC1` [compound 662, 4-[(1-acetylpiperidin-4-yl)methoxy]-1-(4-fluorophenyl)-3-(propan-2-yl)-1H-pyrazolo[3,4-b]pyridine-6-carboxylic acid] the same measures were 310.6% and 2300 nM.
For `CC(C)c1nn(-c2ccc(F)cc2)c2nc(C(=O)O)cc(N3CCC(N4CCOCC4)CC3)c12` [compound 756, 1-(4-fluorophenyl)-4-[4-(morpholin-4-yl)piperidin-1-yl]-3-(propan-2-yl)-1H-pyrazolo[3,4-b]pyridine-6-carboxylic acid] the same measures were 446% and 401 nM.
Turning to `CN(C)C1CCN(c2cc(C(=O)O)nc3c2c(C2CCC2)nn3-c2ccccc2)CC1` [compound 737, 3-cyclobutyl-4-[4-(dimethylamino)piperidin-1-yl]-1-phenyl-1H-pyrazolo[3,4-b]pyridine-6-carboxylic acid], the “% Activation” value turned out to be 343.3% and the EC50 was 1670 nM.
In the case of `O=C(O)c1cc(OCC2CCOCC2)c2c(C3CCC3)nn(-c3ccc(F)cc3)c2n1` [compound 658, 3-cyclobutyl-1-(4-fluorophenyl)-4-[(oxan-4-yl)methoxy]-1H-pyrazolo[3,4-b]pyridine-6-carboxylic acid], the “% Activation” value is 345.9% and the EC50 stood at 455 nM.
For `COCCOCC1(F)CCCN(c2cc(C(=O)O)nc3c2c(C(C)C)nn3-c2ccc(F)cc2)C1` (stereo not drawn) [compound 670, 4-{3-fluoro-3-[(2-methoxyethoxy)methyl]piperidin-1-yl}-1-(4-fluorophenyl)-3-(propan-2-yl)-1H-pyrazolo[3,4-b]pyridine-6-carboxylic acid] the same measures were 397.3% and 218 nM.
The matching figures for `CC(C)c1nn(-c2ccc(F)cc2)c2nc(C(=O)O)cc(N3CCC(N4CCN(C5COC5)CC4)CC3)c12` [compound 744, 1-(4-fluorophenyl)-4-{4-[4-(oxetan-3-yl)piperazin-1-yl]piperidin-1-yl}-3-(propan-2-yl)-1H-pyrazolo[3,4-b]pyridine-6-carboxylic acid]: 337.3% and 735 nM.
For `CC(C)c1nn(-c2ccc(F)cc2)c2nc(C(=O)O)cc(OCCCN3CCOCC3)c12` [compound 607, 1-(4-fluorophenyl)-4-[3-(morpholin-4-yl)propoxy]-3-(propan-2-yl)-1H-pyrazolo[3,4-b]pyridine-6-carboxylic acid] the same measures were 305.5% and 1980 nM.
Take `O=C(O)c1cc(N2CCC(CN3CCOCC3)CC2)c2c(C3CCC3)nn(-c3ccc(F)cc3)c2n1` [compound 821, 3-cyclobutyl-1-(4-fluorophenyl)-4-{4-[(morpholin-4-yl)methyl]piperidin-1-yl}-1H-pyrazolo[3,4-b]pyridine-6-carboxylic acid]: the “% Activation” value stood at 545.15% and the EC50 amounted to 134 nM.
For `CC(O)CN1CCC(N2CCN(c3cc(C(=O)O)nc4c3c(C3CCC3)nn4-c3ccccc3)CC2)CC1` (stereo not drawn) [compound 727, 3-cyclobutyl-4-{4-[1-(2-hydroxypropyl)piperidin-4-yl]piperazin-1-yl}-1-phenyl-1H-pyrazolo[3,4-b]pyridine-6-carboxylic acid] the same measures were 348% and 1670 nM.
For `CCOCCN1CCC(N2CCN(c3cc(C(=O)O)nc4c3c(C(C)C)nn4-c3ccc(F)cc3)CC2)CC1` [compound 741, 4-{4-[1-(2-ethoxyethyl)piperidin-4-yl]piperazin-1-yl}-1-(4-fluorophenyl)-3-(propan-2-yl)-1H-pyrazolo[3,4-b]pyridine-6-carboxylic acid] the same measures were 303% and 669 nM.
